For one compound, IC50 results are on record in publication PMC6659393, “A New Use for an Old Drug: Carmofur Attenuates Lipopolysaccharide (LPS)-Induced Acute Lung Injury via Inhibition of FAAH and NAAA Activities” (Frontiers in Pharmacology, 2019).

The target of experiment [1] is T1, fatty acid amide hydrolase (FAAH) (Rattus norvegicus, UniProt P97612).
T1 construct: rat FAAH overexpressed in HEK293 cells (HEK293-rFAAH), crude protein
T1 sequence (P97612 1-579): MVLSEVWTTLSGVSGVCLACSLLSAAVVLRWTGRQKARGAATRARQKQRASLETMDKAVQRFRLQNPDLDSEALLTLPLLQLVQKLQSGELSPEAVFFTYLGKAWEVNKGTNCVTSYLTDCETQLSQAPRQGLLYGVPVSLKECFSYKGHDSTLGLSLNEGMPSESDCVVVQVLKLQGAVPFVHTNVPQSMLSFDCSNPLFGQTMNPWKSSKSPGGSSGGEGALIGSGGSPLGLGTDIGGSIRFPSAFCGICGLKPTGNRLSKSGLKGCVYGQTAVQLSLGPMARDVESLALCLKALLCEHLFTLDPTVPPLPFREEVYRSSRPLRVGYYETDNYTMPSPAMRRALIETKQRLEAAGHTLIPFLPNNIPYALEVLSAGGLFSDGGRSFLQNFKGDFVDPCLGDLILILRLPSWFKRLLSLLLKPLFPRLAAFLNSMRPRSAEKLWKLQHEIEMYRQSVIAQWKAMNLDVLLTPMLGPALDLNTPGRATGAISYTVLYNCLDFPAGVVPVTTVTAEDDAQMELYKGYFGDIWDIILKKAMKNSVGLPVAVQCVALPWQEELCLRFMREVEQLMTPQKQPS
The experiment is described as follows: AEA hydrolysis by HPLC-MS in crude protein of carmofur-treated HEK293-rFAAH cells; dialysis reversibility test. It counts as cell-based.

Experiment [2] has as its target T2, N-acylethanolamine acid amidase (NAAA) (Rattus norvegicus, UniProt Q5KTC7).
T2 construct: rat NAAA overexpressed in HEK293 cells (HEK293-rNAAA), crude protein
T2 sequence (Q5KTC7 34-130): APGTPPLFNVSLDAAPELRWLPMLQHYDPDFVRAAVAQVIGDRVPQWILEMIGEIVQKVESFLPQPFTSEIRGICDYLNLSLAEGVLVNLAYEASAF
T2 sequence (Q5KTC7 131-362): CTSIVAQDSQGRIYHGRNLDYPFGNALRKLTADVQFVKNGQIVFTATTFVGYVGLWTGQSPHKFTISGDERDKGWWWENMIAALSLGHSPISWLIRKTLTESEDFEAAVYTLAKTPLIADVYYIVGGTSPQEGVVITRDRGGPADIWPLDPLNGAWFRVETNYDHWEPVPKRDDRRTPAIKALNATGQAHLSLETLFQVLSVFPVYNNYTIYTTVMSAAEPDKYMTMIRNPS
The experiment is described as follows: C17:[…] FAE hydrolysis by HPLC-MS in crude protein of carmofur-treated HEK293-rNAAA cells; dialysis reversibility test. It counts as cell-based.

As to `CCCCCCNC(=O)n1cc(F)c(=O)[nH]c1=O` [carmofur], the IC50 worked out at 110 ± 25 nM in experiment [1] and 710 ± 54 nM in experiment [2].

A word on the IC50: it is the concentration needed to halve the response being measured.
